Experimental findings from article PMC11475570, “Impact of Optimized Ku–DNA Binding Inhibitors on the Cellular and In Vivo DNA Damage Response” (Cancers, 2024) are described below.

Values joined by “and” are separate entries in the source; they are usually repeats but may differ in a detail not shown here. Equal values may be shown once.

The target of one data set is T1, DNA-PK (Homo sapiens, UniProt P12956+P13010).
T1 construct: made in house; Ku 70/80 from baculovirus-infected Sf9 cells
Nature of the data set: DNA-PK kinase assay (phosphate transfer to p53 peptide). Format: biochemical. The conditions noted are these: for IC50: DNA-dependent phosphate transfer to synthetic p53 peptide, purified DNA-PK, mean and SD of triplicate. The protocol: (§1) The inhibitory activity of Ku-DBis on Ku-DNA binding was evaluated in vitro using Electrophoretic mobility shift assays (EMSA) with a [^32P]-labeled 30-bp duplex DNA and purified Ku 70/80. Kinase assays were performed to measure the DNA-dependent transfer of [^32P] from γ-[^32P] ATP to a synthetic p53-based peptide substrate, both as previously described. Both EMSA and DNA-PK inhibitor titration assays were performed in triplicate. Data were fit to standard binding curves using GraphPad Prism to determine IC50 values.

A further data set addresses T2, Ku 70/80 (Homo sapiens, UniProt P12956+P13010).
T2 construct: made in house; host or cells: baculovirus-infected Sf9 cells
Nature of the data set: EMSA Ku–DNA binding inhibition. The conditions noted are these: 32P-labeled 30-bp duplex DNA, purified Ku 70/80, mean and SD of triplicate. How it is done: as §1
On the technique in general: In EMSA bound probe runs differently from free probe, usually more slowly.

The next data set deals with H460 NSCLC cells. Nature of the data set: Cellular uptake by HPLC. Particulars: H460, 10 µM, media with 10% FBS. Format: in vitro ADME, Human. The protocol: Cellular uptake was evaluated in two NSCLC cell lines, H460 and A549. Cells were seeded into 6-well plates at a density of 1 × 10^6 cells per well and cultured as monolayers at 37 °C and 5% CO2 for 18–24 h. Ku-DBis were added to the media at a concentration of 10 µM and incubation continued for the times indicated. Media were removed, cells were washed 3 times with PBS, 1 mL of methanol was added to each well, and cells were agitated overnight at 4 °C. The methanol was collected, and wells were washed with an additional 1 mL of methanol that was then pooled with the original. The methanol extracts were then dried under vacuum, resuspended in methanol, and analyzed by HPLC using a 250 × 4.6 and 5 μm C-18 reverse phase column with 1% TFA mobile phase in acetonitrile (ACN) gradient elution. Absorption was monitored at 425 nm, HPLC peaks were quantified using a standard curve, and picomoles of compound per million cells was calculated.

The test system of a further data set is MDA-MB-436. Nature of the data set: Bleomycin-sensitization activity, CCK-8. Format: cell-based, Human. Particulars: BRCA1 mutant MDA-MB-436. The protocol: (§2) Cell metabolism/viability was assessed using a mitochondrial metabolism assay (CCK-8) kit (Cell Counting Kit-8, Cat: CK04, Dojindo Laboratories, Rockville, MD, USA) as previously described. Briefly, cells were seeded at a density of 3 × 10^3 cells per well in 96-well plates and allowed to adhere and stretch for 18–24 h prior to treatment. Cells were pre-treated with Ku-DBi for 24 h before bleomycin treatments. Subsequently, cells were incubated for an additional 48 h at 37 °C after which CCK-8 assay was performed. The absorbance of the formed formazan product in each well was measured at 450 nm and compared to vehicle-treated controls to determine percent cell viability. The results represent the average and SEM of triplicate determinations.

The subject of the next data set is MDA-MB-468. Nature of the data set: Bleomycin-sensitization activity, CCK-8. Format: cell-based, Human. The conditions noted are these: BRCA1 wild-type MDA-MB-468. How it is done:
as §2

In a further data set the test system is H1299. Nature of the data set: CCK-8 cell viability, single agent. Format: cell-based, Human. The protocol: as §2
Another data set relates to MDA-468. Nature of the data set: CCK-8 cell viability, single agent. Format: cell-based, Human. The protocol: as §2
A further data set concerns H460. Nature of the data set: CCK-8 cell viability, single agent. Format: cell-based, Human. The protocol: as §2
The subject of the next data set is MDA-436. Nature of the data set: CCK-8 cell viability, single agent. Format: cell-based, Human. How it is done: as §2
The test system of another data set is H23. Nature of the data set: CCK-8 cell viability, single agent. Format: cell-based, Human. The protocol:
as §2

Another data set concerns A549. Nature of the data set: CCK-8 cell viability, single agent. Format: cell-based, Human. The protocol:
as §2

T2 sequence (P12956 whole entry): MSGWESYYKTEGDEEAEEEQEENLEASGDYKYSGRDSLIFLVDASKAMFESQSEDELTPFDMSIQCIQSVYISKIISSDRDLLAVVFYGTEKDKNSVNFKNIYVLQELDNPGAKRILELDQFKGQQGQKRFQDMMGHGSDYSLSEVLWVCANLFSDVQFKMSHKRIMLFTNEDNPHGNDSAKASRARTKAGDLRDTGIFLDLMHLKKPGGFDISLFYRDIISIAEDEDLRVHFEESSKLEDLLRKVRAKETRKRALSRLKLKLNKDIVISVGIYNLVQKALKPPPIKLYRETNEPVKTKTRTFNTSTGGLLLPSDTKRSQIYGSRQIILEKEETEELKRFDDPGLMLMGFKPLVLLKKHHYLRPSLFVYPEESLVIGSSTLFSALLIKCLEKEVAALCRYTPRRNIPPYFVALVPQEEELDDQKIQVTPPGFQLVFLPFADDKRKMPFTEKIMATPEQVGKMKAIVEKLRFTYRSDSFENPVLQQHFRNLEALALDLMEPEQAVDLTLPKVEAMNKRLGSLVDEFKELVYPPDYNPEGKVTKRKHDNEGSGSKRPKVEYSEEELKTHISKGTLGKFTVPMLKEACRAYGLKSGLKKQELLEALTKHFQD
T2 sequence (P13010 whole entry): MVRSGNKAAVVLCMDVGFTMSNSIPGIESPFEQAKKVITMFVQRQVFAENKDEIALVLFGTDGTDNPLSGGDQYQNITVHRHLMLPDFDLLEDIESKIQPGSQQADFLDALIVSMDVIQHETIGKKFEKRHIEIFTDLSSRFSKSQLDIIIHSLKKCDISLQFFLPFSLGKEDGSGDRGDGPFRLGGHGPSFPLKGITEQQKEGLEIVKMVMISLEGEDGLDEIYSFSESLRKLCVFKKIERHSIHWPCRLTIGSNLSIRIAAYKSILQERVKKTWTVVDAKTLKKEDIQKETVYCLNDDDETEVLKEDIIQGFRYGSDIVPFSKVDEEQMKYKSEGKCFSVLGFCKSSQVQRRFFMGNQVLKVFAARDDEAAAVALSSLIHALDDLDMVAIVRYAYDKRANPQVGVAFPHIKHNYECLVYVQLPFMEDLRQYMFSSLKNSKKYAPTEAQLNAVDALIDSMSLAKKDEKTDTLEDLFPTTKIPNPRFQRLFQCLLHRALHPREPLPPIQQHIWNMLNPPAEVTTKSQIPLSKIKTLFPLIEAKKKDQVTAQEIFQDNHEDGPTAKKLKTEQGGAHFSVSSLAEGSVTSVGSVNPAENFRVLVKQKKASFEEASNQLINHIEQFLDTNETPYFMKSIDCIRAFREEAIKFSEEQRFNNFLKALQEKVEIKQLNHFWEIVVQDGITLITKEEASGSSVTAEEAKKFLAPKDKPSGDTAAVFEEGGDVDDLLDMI
T1 sequence (P12956 whole entry): as the sequence (P12956 whole entry) above
T1 sequence (P13010 whole entry): as the sequence (P13010 whole entry) above

As a reminder, the IC50 is the concentration that inhibits the measured activity by half. A high value points to weaker potency. `COc1cccc(NC(=O)c2cc(-c3ccc(/C=C4\C(=O)N(c5cccc(C(=O)O)c5)c5ccccc54)o3)ccc2F)c1` [GL-3649]: the IC50 against DNA-PK is 1.74 ± 0.61 µM; on Ku 70/80, 3.55 ± 0.4 µM.

Take `COc1cccc(NC(=O)c2cc(-c3ccc(/C=C4\C(=O)N(c5cccc(C(=O)O)c5)c5ccccc54)o3)ccc2OC)c1` [GL-3395]: the “DNA-PK inhibitory activity, fold more active than fluoro-modified counterparts (3618 and 3649)” value on DNA-PK is recorded as ~ 2.5 fold. Further, the IC50 is 0.77 ± 0.24 µM against DNA-PK; 2.4 µM and 2.41 µM on Ku 70/80.

Turning to `O=C(O)c1cccc(N2C(=O)/C(=C\c3ccc(-c4ccc(F)c(C(=O)Nc5cccc(OC(F)(F)F)c5)c4)o3)c3ccccc32)c1` [GL-3618], the IC50 was 1.72 ± 0.15 µM against DNA-PK and 3.36 ± 0.89 µM on Ku 70/80. For the same compound, the “Cellular uptake, fold more efficient than methoxy-derivatives 3395 and 3649” value with H460 NSCLC cells is reported as ~ 3 fold.

As for `O=c1cc(N2CCOCC2)oc2c(-c3cccc4c3sc3ccccc34)cccc12` [NU-7441, reference compound], the “Change in sensitivity to bleomycin” value in the data set with MDA-MB-436 is on record as “decrease in sensitivity to bleomycin”; in the data set on MDA-MB-468 it was “increase in sensitivity”. In addition, the “Cell Viability at 25 µM” value in the data set on H1299 (25 µM) amounted to 17.8 ± 5.4 %ctrl; with MDA-468 (25 µM), 4.1 ± 0.9 %ctrl; with H460 (25 µM), 8.3 ± 0.1 %ctrl; in the data set on MDA-436 (25 µM) it was 17.8 ± 1.3 %ctrl; in the data set with H23 (25 µM), 4.8 ± 0.5 %ctrl; in the data set with A549 (25 µM), 13.6 ± 1.4 %ctrl. The IC50 was 4 ± 0.9 µM in the data set on H1299 (H1299, CCK-8, 72 h, mean ± SD); 5.2 ± 0.4 µM with MDA-468 (MDA-468, CCK-8, 72 h, mean ± SD); 4.8 ± 1 µM in the data set on H460 (H460, CCK-8, 72 h, mean ± SD); 8.1 ± 0.9 µM with MDA-436 (MDA-436, CCK-8, 72 h, mean ± SD); 2.2 ± 0.1 µM in the data set on H23 (H23, CCK-8, 72 h, mean ± SD); about 4.5 µM in the data set on A549 (A549, CCK-8, 72 h, mean ± SD). In the data set with H23 (ATM-null H23 cells), the “Fold more sensitive than the other NSCLC lines” value is recorded as ~ 2 fold.
